Assay results from PMC12195967, “Cobalt(II) Complexes of 4′–Nitro–Fenamic Acid: Characterization and Biological Evaluation” (Molecules, 2025).
Read-outs that look alike come from different tables or passages of the source.

What was measured:
DPPH radical scavenging = details: compounds 0.1 mM, DPPH 0.1 mM in ethanol
Experimental: Antioxidant compounds able to neutralize DPPH radicals are increasingly recognized due to their capability of combating cancer, slowing down the aging process and regulating inflammation. As a result, they could potentially offer protection against rheumatoid arthritis and inflammation. […] In this experiment, NDGA and BHT were used as reference compounds and measurements took place at 30 min and 60 min. […] Such low scavenging activity of DPPH radicals is rather common for metal–NSAID complexes.
S1 Antioxidant activity assay
The antioxidant activity of the compound was evaluated via the ability to scavenge in vitro free radicals such as DPPH and ABTS and to reduce H2O2. All the experiments were carried out at least in triplicate and the standard deviation of absorbance was less than 10% […]
S1.1 Determination of the reducing activity of the radical DPPH
To an ethanolic solution of DPPH (0.1 mM) an equal volume solution of the compounds (0.1 mM) in ethanol was added. Absolute ethanol was also used as control solution. The absorbance at 517 nm was recorded at room temperature after 30 and 60 min in order to examine the possible existence of a potential time−dependence of the DPPH radical scavenging activity.[1] The DPPH−scavenging activity of the compounds was expressed as the percentage reduction of the absorbance values of the initial DPPH solution (DPPH%). NDGA and BHT were used as reference compounds. […]

[1] = test system: Bacillus subtilis ATCC 6633; test: Antibacterial activity, MIC; assay type: cell-based; details: 24 h incubation, 37°C; for MIC: read-out: MIC, B. subtilis
Text: (§1) In order to evaluate the antimicrobial activity of the synthesized 4′–NO2–fenH and its Co(II) complexes 1–4, two Gram-positive (B. subtilis and S. aureus) and two Gram-negative (X. campestris and E. coli) strains were used. In general, the increased antimicrobial activity of the complexes is attributed to five main factors: (i) the chelation effect of the ligands, (ii) the chemical nature of the ligands, (iii) the nature and the nuclearity of the metal center, (iv) the total charge of the complex and (v) the presence and nature of counter ions. […]
(§2) S2 Antibacterial Activity studies
(§3) The antibacterial activity of the compounds was evaluated by determining their respective MIC values towards two Gram–(–) (Escherichia coli XL1 (E. coli) and Xanthomonas campestris ATCC 1395 (X. campestris)) and two Gram–(+) (Staphylococcus aureus ATCC 29213 (S. aureus) and Bacillus subtilis ATCC 6633 (B. subtilis)) bacterial species. Cultures of these microbial strains were grown on a rich selective agar medium and stored at 4°C. The selective media used were Nutrient Agar or Broth for B. subtilis and S. aureus, Yeast Mold Agar or Broth for X. campestris and Luria Agar or Broth for E. coli. Cells picked from the surface of the stored cultures were used to initiate liquid pre–cultures of the same selective medium at an initial turbidity of roughly 1 McFarland unit.
(§4) Pre–cultures were incubated for 24 h in a rotary shaking incubator and subsequently they were used to inoculate the test cultures used for the determination of MIC at an initial turbidity of 0.5 McFarland units. The test cultures consisted of Mueller–Hinton broth (Deben Diagnostics Ltd) containing different concentrations of the compounds. Different concentrations were achieved as follows: the compounds were freshly dissolved in DMSO to a concentration of 1 mg/mL, and they were diluted with DMSO, using the method of progressive double dilution. Therefore, working solutions with decreasing concentrations of the compounds under investigation were achieved.
(§5) The working solutions were subsequently diluted to the final desired concentration by addition to the growth medium at a proportion of 2:98. MIC values were determined as the lowest concentrations of the tested compounds that inhibited visible growth of each respective organism after a 24 h incubation. Bacterial growth was determined by measuring the turbidity of appropriately diluted cultures at 600 nm with reference to equally diluted sterile growth medium and the inhibition achieved was calculated by comparing the turbidity of each culture to the average of the turbidity of three non–inhibited cultures. All test cultures were grown in triplicates and for the determination of MIC, growth had to be inhibited in at least two cultures of the triplicate. The incubation temperature at all stages was 37°C except for X. campestris that was cultivated at 28°C [4].

Escherichia coli XL1 = test: Antibacterial activity, MIC; assay type: cell-based; details: 24 h incubation, 37°C
Text: as §1, §2, §3, §4, §5

[2] = test system: Xanthomonas campestris ATCC 33013; test: Antibacterial activity, MIC; assay type: cell-based; details: for MIC: read-out: MIC, X. campestris
Text: as §1, §2, §3, §4, §5

[3] = target: T1, bovine serum albumin (BSA) (Bos taurus, UniProt P02769); test: Competitive albumin-fluorescence studies with warfarin and ibuprofen; assay type: binding; details: for preferential BSA-binding site: from comparison of K with and without site markers; for K(BSA, ibuprofen): in the presence of ibuprofen; for K(BSA, warfarin): in the presence of warfarin
T1 construct: purchased Sigma-Aldrich Co
Text: (§6) One of the primary functions of SAs is the transport of various compounds such as drugs, fatty acids and hormones. Albumins are composed of three domains, I, II and III, and each of them is subdivided into A and B subdomains that host compounds [90]. […] Site markers like warfarin and ibuprofen are used to identify in which albumin site a compound is bound, as these markers bind selectively to Sudlow’s sites I and II, respectively. The SA-binding site of the compounds was investigated by calculating the SA-binding constant for both HSA and BSA in the presence of ibuprofen or warfarin and comparing them with the values previously derived (in the absence of any marker).
(§7) Incremental addition of the compounds into a solution containing the SA (HSA or BSA) and the respective site marker (warfarin or ibuprofen) induced quenching of the initial fluorescence emission band (Figures S19–S22). The SA-binding constants for each compound in the presence of warfarin or ibuprofen were calculated with the Scatchard equation (Equation (S7)) and the corresponding plots (Figures S23–S26) and are compared with those calculated in the absence of any site marker to determine the preferable drug site. […]
(§8) From the Scatchard equation:
(§9) [Q] = nK − K Io (equation S7) where n is the number of binding sites per albumin and K is the albumin−binding constant (K, in M−1) is calculated from the slope in plots (ΔI/Io)/[compound] versus (ΔI/Io) and n is given by the ratio of y intercept to the slope.
(§10) S5.2 Competitive albumin−fluorescence studies with warfarin and ibuprofen The competitive studies with warfarin or ibuprofen (as site−markers) were performed by tryptophan fluorescence quenching experiments using a fixed concentration of the albumin and site markers (3 μM) in buffer (containing 15 mM trisodium citrate and 150 mM NaCl at pH 7.0). The fluorescence emission spectra were recorded in the presence of increasing amounts of the compounds as quenchers with an excitation wavelength of 295 nm. The Scatchard equation (equation S7) and plots were applied on the corrected albumin−fluorescence emission spectra to determine the albumin−binding constant of the compounds in the presence of warfarin or ibuprofen.

[4] = target: T2, human serum albumin (HSA) (Homo sapiens, UniProt P02768); test: as above; assay type: binding; details: for K(HSA, ibuprofen): in the presence of ibuprofen; for K(HSA, warfarin): in the presence of warfarin
T2 construct: purchased Sigma-Aldrich Co
Text: as §6, §7, §8, §9, §10

[5] = value in parentheses, 24 h incubation, 28°C

T1 sequence (P02769 25-607): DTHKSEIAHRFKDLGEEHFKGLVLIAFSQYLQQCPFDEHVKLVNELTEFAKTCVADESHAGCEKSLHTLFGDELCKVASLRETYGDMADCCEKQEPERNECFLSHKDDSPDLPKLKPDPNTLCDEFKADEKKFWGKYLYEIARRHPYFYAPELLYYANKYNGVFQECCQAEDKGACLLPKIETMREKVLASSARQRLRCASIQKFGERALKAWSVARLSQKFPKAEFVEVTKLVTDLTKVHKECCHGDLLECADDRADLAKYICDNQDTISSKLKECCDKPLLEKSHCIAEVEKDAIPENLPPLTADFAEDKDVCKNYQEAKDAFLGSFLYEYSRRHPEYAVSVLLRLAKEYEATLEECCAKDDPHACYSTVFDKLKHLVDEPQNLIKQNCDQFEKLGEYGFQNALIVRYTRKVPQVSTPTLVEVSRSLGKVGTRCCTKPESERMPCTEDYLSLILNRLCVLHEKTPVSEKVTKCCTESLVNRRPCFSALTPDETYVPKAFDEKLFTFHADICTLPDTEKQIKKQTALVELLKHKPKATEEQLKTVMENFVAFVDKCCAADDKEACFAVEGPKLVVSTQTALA
T2 sequence (P02768 25-609): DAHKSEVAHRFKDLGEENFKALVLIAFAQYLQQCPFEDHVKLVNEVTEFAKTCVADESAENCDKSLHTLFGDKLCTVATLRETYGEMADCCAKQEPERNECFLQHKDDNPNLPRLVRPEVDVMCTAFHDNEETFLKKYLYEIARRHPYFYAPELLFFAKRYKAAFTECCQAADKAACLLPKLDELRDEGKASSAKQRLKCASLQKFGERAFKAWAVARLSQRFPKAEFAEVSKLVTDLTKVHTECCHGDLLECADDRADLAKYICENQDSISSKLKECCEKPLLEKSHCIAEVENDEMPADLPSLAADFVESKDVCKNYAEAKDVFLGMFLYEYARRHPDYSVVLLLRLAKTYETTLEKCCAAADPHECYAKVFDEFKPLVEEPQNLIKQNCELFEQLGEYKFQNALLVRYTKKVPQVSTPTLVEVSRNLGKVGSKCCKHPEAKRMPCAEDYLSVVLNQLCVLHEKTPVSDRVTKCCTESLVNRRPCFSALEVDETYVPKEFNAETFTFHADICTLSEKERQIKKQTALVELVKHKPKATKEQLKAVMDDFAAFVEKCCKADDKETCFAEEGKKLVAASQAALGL

Compound | %DPPH-scavenging ability (DPPH%), 30 min (DPPH radical scavenging) | %DPPH-scavenging ability (DPPH%), 60 min (DPPH radical scavenging) | MIC ([1]; Bacillus subtilis, ATCC6633) [µg/mL] | MIC ([1]; Bacillus subtilis, ATCC6633, value in parentheses) [µM] | MIC (Escherichia coli XL1; Escherichia coli, XL1) [µg/mL] | MIC (Escherichia coli XL1; Escherichia coli, XL1, value in parentheses) [µM] | MIC ([2]; Xanthomonas campestris, ATCC33013, 24 h) [µg/mL] | MIC ([2]; Xanthomonas campestris, ATCC33013, value in parentheses, 24 h incubation, 28°C) [µM] | preferential BSA-binding site [3] | K(BSA, ibuprofen) [3] | K(BSA, warfarin) [3] | K(HSA, ibuprofen) [4] | K(HSA, warfarin) [4] | MIC, B. subtilis [1] [µg/mL] | MIC ([1]; value in parentheses) [µM] | MIC, E. coli (Escherichia coli XL1) [µg/mL] | MIC (Escherichia coli XL1; value in parentheses) [µM] | MIC, X. campestris ([2]; 24 h incubation, 28°C) [µg/mL] | MIC [2, 5] [µM]
O=C(O)c1ccccc1Nc1ccc([N+](=O)[O-])cc1 [4′–NO2–fenH, 4′–nitrofenamic acid] | Not active | Not active | 12.5 | 48 | 25 | 97 | 25 | 97 | Sudlow’s site I | 2.70 (±0.11) × 10^5 M^−1 | 1.41 (±0.06) × 10^5 M^−1 | 2.91 (±0.06) × 10^5 M^−1 | 3.22 (±0.12) × 10^5 M^−1 | – | – | – | – | – | –
CO.CO.CO.CO.O=C([O-])c1ccccc1Nc1ccc([N+](=O)[O-])cc1.O=C([O-])c1ccccc1Nc1ccc([N+](=O)[O-])cc1.[Co+2] [Complex 1, [Co(4′–NO2–fen)2(MeOH)4]] | Not active | Not active | – | – | – | – | – | – | Sudlow’s site I | 1.38 (±0.08) × 10^5 M^−1 | 1.06 (±0.04) × 10^5 M^−1 | 1.66 (±0.09) × 10^5 M^−1 | 1.99 (±0.11) × 10^5 M^−1 | 12.5 | 18 | > 50 | > 71 | > 50 | > 71
O=C([O-])c1ccccc1Nc1ccc([N+](=O)[O-])cc1.O=C([O-])c1ccccc1Nc1ccc([N+](=O)[O-])cc1.[Co+2].c1ccc(Nc2ccccn2)nc1 [Complex 2, [Co(4′–NO2–fen)2(bipyam)]] | Not active | Not active | – | – | – | – | – | – | Sudlow’s site II | 1.42 (±0.09) × 10^5 M^−1 | 1.85 (±0.06) × 10^5 M^−1 | 2.02 (±0.03) × 10^5 M^−1 | 2.75 (±0.19) × 10^5 M^−1 | 25 | 34 | > 50 | > 67 | 25 | –
O=C([O-])c1ccccc1Nc1ccc([N+](=O)[O-])cc1.O=C([O-])c1ccccc1Nc1ccc([N+](=O)[O-])cc1.[Co+2].c1cnc2c(c1)ccc1cccnc12 [Complex 3, [Co(4′–NO2–fen)2(phen)]] | Not active | Not active | – | – | – | – | – | – | Sudlow’s site I | 1.95 (±0.03) × 10^5 M^−1 | 1.60 (±0.06) × 10^5 M^−1 | 5.23 (±0.17) × 10^4 M^−1 | 4.80 (±0.17) × 10^5 M^−1 | 25 | 33 | 25 | 33 | 25 | 33
C[O-].C[O-].Cc1ccc2ccc3ccc(C)nc3c2n1.Cc1ccc2ccc3ccc(C)nc3c2n1.O=C([O-])c1ccccc1Nc1ccc([N+](=O)[O-])cc1.O=C([O-])c1ccccc1Nc1ccc([N+](=O)[O-])cc1.[Co+2].[Co+2] [Complex 4, [Co2(4′–NO2–fen)2(μ–CH3O)2(neoc)2]] | Not active | Not active | – | – | – | – | – | – | Sudlow’s site I | 3.60 (±0.14) × 10^5 M^−1 | 2.40 (±0.06) × 10^5 M^−1 | 3.04 (±0.15) × 10^5 M^−1 | 5.00 (±0.18) × 10^5 M^−1 | 12.5 | 11 | > 50 | > 45 | 12.5 | 11
